The nature of one data set: in vitro. Particulars: pig. Type of data set: cell-based, porcine. The procedure:
Porcine small intestinal epithelial cells (IPEC-J2) were cultured in DMEM-F12 medium supplemented with 10% fetal bovine serum (TransGen Biotech, Beijing, China) and 1% penicillin–streptomycin (Beyotime Biotechnology, Shanghai, China). The cells were maintained in a humidified incubator at 37 °C with 5% CO2. Cells were passaged using 0.25% trypsin solution containing ethylenediaminetetraacetic acid (EDTA). Cells were seeded into 96-well plates at a density of 1 × 10⁴ cells per well. After 48 h, they were treated with varying concentrations of D-CONGA-Q7 and incubated with CCK-8 (Beyotime Biotechnology, Shanghai, China) for 1 h. The assay was measured using a […].

The test system of data set [1] is E. coli strain LN175, K88, J27ab-2. As to the kind of experiment: Thermal and acid-base stability, read out as change in MIC. Type of data set: physicochemical, Escherichia coli. The settings on record: 1.024 mg/mL solution, then adjusted back. The procedure: For thermal stability, the D-CONGA-Q7 was prepared as a 1.024 mg/mL solution and heated in a water bath at room temperature, 60, 65, 70, 75, 80, 90 and 100 °C for 1 h, and autoclaved at 121 °C for 15 min and then cooled to room temperature, respectively. Acid–base stability, 1.024 mg/mL of D-CONGA-Q7 solution was used to adjust its pH to 2–12 using HCl and NaOH, and the pH of each tube was adjusted back to the initial tube pH after 1 h. The adjustment of solution pH = 3.89 (pH = 3.89 is the pH of D-CONGA-Q7 itself when dissolved) included the above use of the untreated samples as a control.
The antimicrobial activity of D-CONGA-Q7 was evaluated by assessing changes in its MIC against strain LN175, K88, J27ab-2.

The subject of the next data set is erythrocyte. The settings on record: cited from earlier work. The text has this:
D-CONGA was originally screened from a library of 28,000 peptides using high-throughput synthesis principles and host cell compatibility. […] This study explored the antimicrobial mechanis ...

Data set [2] deals with E. coli LN175 (mcr-1,NDM). The format is cell-based, Escherichia coli.
Description: (§1) The bacterial strains used in this study, including LN175, J27ab-2, K88, AD21R, and 21f54mr-1, were E. coli obtained from the Hunan Veterinary Engineering Research Center (Changsha, Hunan Province). Except for K88, all the strains were multidrug-resistant and carried multiple resistance genes, while K88 was a diarrhea-causing strain containing the ETEC gene.
(§2) The bacterial concentration was adjusted to 1 × 10^5 CFU/mL using a turbidimeter. Then, 100 μL of Mueller–Hinton Broth (MHB) broth was added to wells 1–11 of a 96-well plate, while 200 μL was added to well 12. Then, 100 μL of the drug was added to wells 1–11, which was followed by 100 μL of the bacterial suspension. Results were observed after incubation at 37 °C for 16–24 h.
In data set [3] the test system is multidrug-resistant E. coli strains. Type of data set: cell-based, Escherichia coli.
Description: as §1, §2

≈ marks a conversion by molar mass, not a printed value. Where a SMILES comes first, the peptide text is derived from it. [ ]: non-standard residue; d: D form.

These results are taken from article PMC11940214, “The Antimicrobial Peptide D-CONGA-Q7 Eradicates Drug-Resistant E. coli by Disrupting Bacterial Cell Membranes” (Biology, 2025).

In “in vitro”, `CC(C)C[C@@H](NC(=O)[C@@H](CCC(N)=O)NC(=O)[C@@H](CCCNC(=N)N)NC(=O)[C@@H](CCCNC(=N)N)NC(=O)[C@@H](C)NC(=O)[C@@H](Cc1c[nH]c2ccccc12)NC(=O)[C@@H](CCCNC(=N)N)NC(=O)[C@H](N)CCCNC(=N)N)C(=O)N[C@H](C)C(=O)N[C@H](Cc1ccccc1)C(=O)N[C@H](C)C(=O)N[C@H](Cc1ccccc1)C(=O)N[C@H](CCCNC(=N)N)C(=O)N[C@H](CCCNC(=N)N)C(N)=O` [D-CONGA-Q7] (H-[dR][dR][dW][dA][dR][dR][dQ][dL][dA][dF][dA][dF][dR][dR]-NH2) had an IC50 of 188 µg/mL (≈ 99.8 µM). The “antimicrobial activity after exposure to pH 12 (acid-base stability)” value in data set [1] (pH 12, 1 h, read-out MIC) is recorded as “reduction in activity”. The “antimicrobial activity after exposure to pH 2 to 11 (acid-base stability)” value in data set [1] (pH between 2 and 11 with HCl/NaOH, 1 h, read-out MIC against LN175, K88, J27ab-2) is listed as “retained its antimicrobial activity”. Also, the erythrocyte hemolytic activity entry in the data set on erythrocyte is given as “minimal erythrocyte hemolytic activity”. The MIC in data set [2] amounted to 4 µg/mL (≈ 2.12 µM). In addition, the “MIC values for all strains tested” value in data set [3] is reported as “less than or equal to 4 μg/mL”.
